Data: US10947271B2, “Antibacterial agents” (THE UNIVERSITY OF QUEENSLAND, priority 2014, dated 2021)

How the values were obtained:
MRSA (Strain ATCC 43300) = test: Murine thigh infection model (MRSA); type: in vivo, Staphylococcus aureus; conditions: neutropenic CD1 mice
Protocol: Summary: Adult (8 week old) female CD1 mice were made neutropenic by two injections of cyclophosphamide 4 days and 1 day prior to infection. An inoculum of 10^5 cfu MRSA (Strain ATCC 43300) was injected intramuscularly into both left and right thighs of all mice. […] After an additional two hours, a 50 μL sample of blood was obtained from the tail bleed to analyse for presence of antibiotic compound. […] Thighs were then removed, weighed and homogenised in a fixed volume of saline. The homogenate solution was filtered, diluted and seeded onto agar plates, which were incubated overnight at 37° C. Colony counts were used to establish the cfu in the thigh homogenates, the cfu/thigh, and the cfu/g of thigh.
Compound preparation: Cyclophosphamide monohydrate (Sigma) was dissolved in sterile saline to a concentration of 30 mg/mL. Likewise, vancomycin (Sigma) and MCC compounds were also dissolved in sterile saline to a final concentration of 60 mg/mL and 18.5 mg/mL respectively. All compounds were prepared in low binding Eppendorf tubes and kept at −20° C. until used.
In vivo experimental assay: Eight week old female outbred CD1 mice (UQBR-AIBN) were rendered neutropenic by injecting two doses of cyclophosphamide intraperitoneally 4 days (150 mg/kg) and 1 day (100 mg/kg) prior to experimental infection. The infection model using MRSA was established by intramuscular injection of 50 μL of early-log-phase bacterial MRSA suspension (around 2×10^6 cfu/mL) in saline into both thigh muscles. […] Untreated animals received equivalent volume of saline (Baxter). The mice were monitored for signs of normal behaviour (i.e. grooming, eating, drinking, sleeping, and alertness) during and following dosing. Two hours after saline/antibiotic treatment, 0.05 mL of blood was collected by tail incision. 24 hours after MRSA infection, mice were euthanized and blood collected from the heart by cardiac puncture (saline group) or by tail incision (Vancomycin and MCC compound treated groups) as outlined in FIG. 1. For each mouse, both thighs were collected aseptically by cutting the leg at the hip and knee, placed in 10 mL of cold sterile saline and the individual weight of each thigh recorded.
Preparation of injectable MRSA solution: An MRSA subculture bacterial isolate (ATCC43300) was taken from the storage at −80° C. and freshly seeded on agar plates for overnight (O/N) growth. From the O/N culture preparation, a single colony was diluted into 10-12 mL of Mueller Hinton broth (MHB) and incubated O/N at 37° C. A log-phase subculture was obtained by adding 100 μL of O/N subculture in 10 mL MHB and incubated for a further 2-3 hours. Finally, the OD600 value of the bacterial suspension was determined and the colony forming units per millilitre (cfu/mL) extrapolated. A full dilution of the bacterial cell suspension in saline was achieved by washing (3220×g for 10 min) and the OD600 in saline determined. The suspension was then diluted out accordingly in order to achieve a 2×10^6 cfu/mL solution (10^5 cfu in 50 μL/thigh).
Thus, 10 μL of the injectable MRSA suspension was diluted down to 10-1000 fold, each dilution plated out onto agar plates and incubated at 37° C. for 24 hours.
Thigh homogenates and CFU determination: Thighs were homogenized at 20,000 rpm for 15 seconds using a Polytron MR2500E using a […] probe (all Kinematica).

[1] = tested on: Staphylococcus aureus MRSA ATCC 43300; test: MIC assay, S. aureus MRSA ATCC 43300; type: cell-based; conditions: 24 h incubation, visual reading
Outline: (§1)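 Mid-log cultures in MHB were added at 5×10e5 CFU/mL to compounds diluted twofold from 8 to 0.003 μg/ml. Visual inspection after 24 h incubation at 37° C. gave the MIC, the lowest concentration without visible growth.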

[2] = tested on: Streptococcus pneumoniae MDR ATCC 700677; test: MIC assay, S. pneumoniae MDR ATCC 700677; type: cell-based; conditions: 24 h incubation, visual reading
Outline: as §1

[3] = tested on: Enterococcus faecium MDR Van A ATCC 51559; test: MIC assay, E. faecium MDR Van A ATCC 51559; type: cell-based; conditions: 24 h incubation, visual reading
Outline: as §1

[4] = single subcutaneous dose 10 mg/kg
[5] = single subcutaneous dose 25 mg/kg

Structure (SMILES)	Average Reduction log Δcfu MRSA/thigh after 26 h (MRSA (Strain ATCC 43300); [4])	Minimum Inhibitory Concentration (MIC) Staph. aureus ATCC43300 [1]	Minimum Inhibitory Concentration (MIC) S. pneumoniae ATCC 700677 [2]	Minimum Inhibitory Concentration (MIC) E. faecium ATCC51559 [3]	Average Reduction log Δcfu MRSA/thigh after 26 h (MRSA (Strain ATCC 43300); [5])	Average Reduction log Δcfu MRSA/thigh after 26 h (MRSA (Strain ATCC 43300); single subcutaneous dose 50 mg/kg)	Average Reduction log Δcfu MRSA/thigh after 26 h (MRSA (Strain ATCC 43300); single subcutaneous dose 5 mg/kg)
CCCCCCCCC(=O)NC(CCCCN(C)C)C(=O)NCCCNC(=O)C1NC(=O)C2NC(=O)C(NC(=O)C3NC(=O)C(CC(N)=O)NC(=O)C(NC(=O)C(CC(C)C)NC)C(O)c4ccc(c(Cl)c4)Oc4cc3cc(c4OC3OC(CO)C(O)C(O)C3OC3CC(C)(N)C(O)C(C)O3)Oc3ccc(cc3Cl)C2O)c2ccc(O)c(c2)-c2c(O)cc(O)cc21 (stereo not shown) [MCC_007338]	xx (xx = 2-4)	xxx (xxx = 0.1-<1)	xxx (xxx = 0.1-<1)	x (x = >4)	–	–	–
CCCCCCCCCC(=O)N[C@@H](CCCCN)C(=O)N[C@@H](CCCCN)C(=O)N[C@@H](CCCCN)C(=O)NCCNC(=O)[C@H]1NC(=O)[C@H]2NC(=O)[C@H](NC(=O)[C@@H]3NC(=O)[C@H](CC(N)=O)NC(=O)[C@H](NC(=O)[C@@H](CC(C)C)NC)[C@H](O)c4ccc(c(Cl)c4)Oc4cc3cc(c4O[C@@H]3O[C@H](CO)[C@@H](O)[C@H](O)[C@H]3O[C@H]3C[C@](C)(N)[C@H](O)[C@H](C)O3)Oc3ccc(cc3Cl)[C@H]2O)c2ccc(O)c(c2)-c2c(O)cc(O)cc21 [MCC_005181]	xx (xx = 2-4)	xxxxx (xxxxx = <0.01)	xxxx (xxxx = 0.01-<0.1)	xx (xx = 1-4)	–	–	–
CCCCCCCCCCC(=O)NC(CCCCN)C(=O)NC(CCCCN)C(=O)NC(CCCCNC(=O)C1NC(=O)C2NC(=O)C(NC(=O)C3NC(=O)C(CC(N)=O)NC(=O)C(NC(=O)C(CC(C)C)NC)C(O)c4ccc(c(Cl)c4)Oc4cc3cc(c4OC3OC(CO)C(O)C(O)C3OC3CC(C)(N)C(O)C(C)O3)Oc3ccc(cc3Cl)C2O)c2ccc(O)c(c2)-c2c(O)cc(O)cc21)C(N)=O (stereo not shown) [MCC_000455]	–	xxxxx (xxxxx = <0.01)	xxxxx (xxxxx = <0.01)	xxx (xxx = 0.1-<1)	xxx (xxx = 4-6)	–	–
CCCCCCCCCCCC(=O)N[C@@H](CCCCN)C(=O)N[C@@H](CCCCN)C(=O)N[C@@H](CCCCNC(=O)[C@H]1NC(=O)[C@H]2NC(=O)[C@H](NC(=O)[C@@H]3NC(=O)[C@H](CC(N)=O)NC(=O)[C@H](NC(=O)[C@@H](CC(C)C)NC)[C@H](O)c4ccc(c(Cl)c4)Oc4cc3cc(c4O[C@@H]3O[C@H](CO)[C@@H](O)[C@H](O)[C@H]3O[C@H]3C[C@](C)(N)[C@H](O)[C@H](C)O3)Oc3ccc(cc3Cl)[C@H]2O)c2ccc(O)c(c2)-c2c(O)cc(O)cc21)C(=O)O [MCC_000347]	xxxx (xxxx = >6)	xxxxx (xxxxx = <0.01)	xxxx (xxxx = 0.01-<0.1)	xx (xx = 1-4)	–	–	–
CCCCCCCCCC(=O)N[C@@H](CCCCN)C(=O)N[C@@H](CCCCN)C(=O)NCCNC(=O)[C@H]1NC(=O)[C@H]2NC(=O)[C@H](NC(=O)[C@@H]3NC(=O)[C@H](CC(N)=O)NC(=O)[C@H](NC(=O)[C@@H](CC(C)C)NC)[C@H](O)c4ccc(c(Cl)c4)Oc4cc3cc(c4O[C@@H]3O[C@H](CO)[C@@H](O)[C@H](O)[C@H]3O[C@H]3C[C@](C)(N)[C@H](O)[C@H](C)O3)Oc3ccc(cc3Cl)[C@H]2O)c2ccc(O)c(c2)-c2c(O)cc(O)cc21 [MCC_005166]	xxx (xxx = 4-6)	xxxx (xxxx = 0.01-<0.1)	xxxx (xxxx = 0.01-<0.1)	x (x = >4)	–	–	–
CNC(CC(C)C)C(=O)NC1C(=O)NC(CC(N)=O)C(=O)NC2C(=O)NC3C(=O)NC(C(=O)NC(C(=O)NCCCNC(=O)C(CCCCN)NC(=O)c4ccc(Oc5ccccc5)cc4)c4cc(O)cc(O)c4-c4cc3ccc4O)C(O)c3ccc(c(Cl)c3)Oc3cc2cc(c3OC2OC(CO)C(O)C(O)C2OC2CC(C)(N)C(O)C(C)O2)Oc2ccc(cc2Cl)C1O (stereo not shown) [MCC_007407]	xxx (xxx = 4-6)	xxxx (xxxx = 0.01-<0.1)	xxxx (xxxx = 0.01-<0.1)	x (x = >4)	–	–	–
CNC(CC(C)C)C(=O)NC1C(=O)NC(CC(N)=O)C(=O)NC2C(=O)NC3C(=O)NC(C(=O)NC(C(=O)NCCCNC(=O)C(CCCCN)NC(=O)C(CCCCN)NC(=O)c4ccc(Cl)cc4)c4cc(O)cc(O)c4-c4cc3ccc4O)C(O)c3ccc(c(Cl)c3)Oc3cc2cc(c3OC2OC(CO)C(O)C(O)C2OC2CC(C)(N)C(O)C(C)O2)Oc2ccc(cc2Cl)C1O (stereo not shown) [MCC_005362]	x (x = 0-2)	xxx (xxx = 0.1-<1)	xxx (xxx = 0.1-<1)	xx (xx = 1-4)	–	xxx (xxx = 4-6)	–
CCCCCCCCCCC(=O)N[C@@H](CCCCN)C(=O)N[C@@H](CCCCN)C(=O)NCCCNC(=O)[C@H]1NC(=O)[C@H]2NC(=O)[C@H](NC(=O)[C@@H]3NC(=O)[C@H](CC(N)=O)NC(=O)[C@H](NC(=O)[C@@H](CC(C)C)NC)[C@H](O)c4ccc(c(Cl)c4)Oc4cc3cc(c4O[C@@H]3O[C@H](CO)[C@@H](O)[C@H](O)[C@H]3O[C@H]3C[C@](C)(N)[C@H](O)[C@H](C)O3)Oc3ccc(cc3Cl)[C@H]2O)c2ccc(O)c(c2)-c2c(O)cc(O)cc21 [MCC_000344]	–	xxxx (xxxx = 0.01-<0.1)	xxxx (xxxx = 0.01-<0.1)	xx (xx = 1-4)	xxx (xxx = 4-6)	–	–
CCCCCCCCCC(=O)N[C@@H](CCCCN)C(=O)NCCCNC(=O)[C@H]1NC(=O)[C@H]2NC(=O)[C@H](NC(=O)[C@@H]3NC(=O)[C@H](CC(N)=O)NC(=O)[C@H](NC(=O)[C@@H](CC(C)C)NC)[C@H](O)c4ccc(c(Cl)c4)Oc4cc3cc(c4O[C@@H]3O[C@H](CO)[C@@H](O)[C@H](O)[C@H]3O[C@H]3C[C@](C)(N)[C@H](O)[C@H](C)O3)Oc3ccc(cc3Cl)[C@H]2O)c2ccc(O)c(c2)-c2c(O)cc(O)cc21 [MCC_005200]	xx (xx = 2-4)	xxxx (xxxx = 0.01-<0.1)	xxxx (xxxx = 0.01-<0.1)	xx (xx = 1-4)	–	–	–
CCCCCCCCCCC(=O)N[C@@H](CCCCN)C(=O)N[C@@H](CCCCN)C(=O)N[C@@H](CCCCNC(=O)[C@H]1NC(=O)[C@H]2NC(=O)[C@H](NC(=O)[C@@H]3NC(=O)[C@H](CC(N)=O)NC(=O)[C@H](NC(=O)[C@@H](CC(C)C)NC)[C@H](O)c4ccc(c(Cl)c4)Oc4cc3cc(c4O[C@@H]3O[C@H](CO)[C@@H](O)[C@H](O)[C@H]3O[C@H]3C[C@](C)(N)[C@H](O)[C@H](C)O3)Oc3ccc(cc3Cl)[C@H]2O)c2ccc(O)c(c2)-c2c(O)cc(O)cc21)C(=O)O [MCC_000174]	xxx (xxx = 4-6)	xxxx (xxxx = 0.01-<0.1)	xxxx (xxxx = 0.01-<0.1)	x (x = >4)	xxx (xxx = 4-6)	–	xxx (xxx = 4-6)
